What was measured:
[1] = target: T1, Avi-KRAS G12D (1-169) GppNHp/RAF1 RBD-3×FLAG (52-151) (Homo sapiens, UniProt P01116, G12D); experiment: Disrupting RAS-effector binding HTRF assay, Raf1 RBD-KRAS G12D-GppNHp; settings: PPI HTRF, 50 nM Avi-KRAS G12D GppNHp, compound titration 30-0.0045 μM; read-out: Raf1 RBD-KRAS G12D-GppNHp disruption
T1 construct: 50 nM Avi-KRAS G12D (1-169) GppNHp/RAF1 RBD-3×FLAG (52-151)
Procedure: (§1) A protein:protein interaction (PPI) Homogeneous Time Resolved Fluorescence (HTRF) assay was used to determine the effectiveness of compounds of the present disclosure in disrupting KRAS protein and effector RAF1 binding.
(§2) The HTRF assay used the following reagents and proteins: (i) 50 nM Avi-KRAS G12D (1-169) GppNHp/RAF1 RBD-3×FLAG (52-151); (ii) 50 nM Avi-KRAS G12R (1-169) GppNHp/RAF1 RBD-3×FLAG (52-151); (iii) 50 nM Avi-KRAS G12V (1-169) GppNHp/RAF1 RBD-3×FLAG (52-151), (iv) 50 nM Avi-KRAS WT (1-169) GppNHp/RAF1 RBD-3×FLAG (52-151); and (v) 75 nM Avi-RAF1 RBD-3×FLAG. The assay buffer included: 50 mM Tris pH 7.5, 100 mM NaCl, 5 mM MgCl2, 0.1% BSA, […], 10% DMSO. The bead buffer included: 50 mM Tris pH 7.5, 0.01% o Tween 20. Assay volume of 20 μL was used in a 384 well plate-low volume format. Compound titration: 30-0.0045 μM, 3× dilution series.
(§3) The HTRF assay employed the following protocol:
(§4) Compounds were dispensed in assay plate (384-well, Grenier Bione #784075) using Echo (model 555) with dose response settings: 200 nL final volume, titration from 30 μM as a 10-point dilution series. Protein mix was prepared in assay buffer, and dispensed on plates, 10 μL per well, then incubated for 1 h at room temperature, with 700 rpm shaking. Reagents mix was prepared and dispensed on plates, 10 μL per well, then incubated for 1 h at room temperature, with 700 rpm shaking.
(§5) Plates were analyzed on an Envision plate reader using the following setting: Excitation 320 nm, Bandwidth 75 nM; Emission 615 nm, Bandwidth 85 nM, Gain 100%, Flashes 100, Lag 60 μs. Data were reported as percentage of activity, with DMSO as 100%. Data were plotted and analyzed using Prism 8.
(§6) The biochemical Raf1-KRAS G12D/G12R/G12V/WT-GppNHP disruption assay IC50 of selected compounds described herein are shown in Table 4.

[2] = target: T2, Avi-KRAS G12V (1-169) GppNHp/RAF1 RBD-3×FLAG (52-151) (Homo sapiens, UniProt P01116, G12V); experiment: Disrupting RAS-effector binding HTRF assay, Raf1 RBD-KRAS G12V-GppNHp; settings: PPI HTRF, 50 nM Avi-KRAS G12V GppNHp, compound titration 30-0.0045 μM; read-out: Raf1 RBD-KRAS G12V-GppNHp disruption
T2 construct: 50 nM Avi-KRAS G12V (1-169) GppNHp/RAF1 RBD-3×FLAG (52-151)
Procedure: as §1, §2, §3, §4, §5, §6

[3] = target: T3, Avi-KRAS G12R (1-169) GppNHp/RAF1 RBD-3×FLAG (52-151) (Homo sapiens, UniProt P01116, G12R); experiment: Disrupting RAS-effector binding HTRF assay, Raf1 RBD-KRAS G12R-GppNHp; settings: PPI HTRF, 50 nM Avi-KRAS G12R GppNHp, compound titration 30-0.0045 μM; read-out: Raf1 RBD-KRAS G12R-GppNHp disruption
T3 construct: 50 nM Avi-KRAS G12R (1-169) GppNHp/RAF1 RBD-3×FLAG (52-151)
Procedure: as §1, §2, §3, §4, §5, §6

[4] = target: T4, Avi-KRAS WT (1-169) GppNHp/RAF1 RBD-3×FLAG (52-151) (Homo sapiens, UniProt P01116); experiment: Disrupting RAS-effector binding HTRF assay, Raf1 RBD-KRAS WT-GppNHp; settings: PPI HTRF, 50 nM Avi-KRAS WT GppNHp, compound titration 30-0.0045 μM; read-out: Raf1 RBD-KRAS WT-GppNHp disruption
T4 construct: 50 nM Avi-KRAS WT (1-169) GppNHp/RAF1 RBD-3×FLAG (52-151)
Procedure: as §1, §2, §3, §4, §5, §6

[5] = test system: KRAS G12D protein/effector signaling in GP2d cells; experiment: Cell-based pERK HTRF assay in GP2d cell; settings: 1 h, 60 min incubation
Procedure: A pERK assay (Perkin Elmer) was used to determine the effectiveness of compounds in disrupting KRAS G12D protein/effector signaling in cells.
On Day 1, cells (GP2d) were seeded into 96-well plates at 3×10^4 cells/well in 80 μL complete growth media (DMEM, 10% FBS).
(§7) On Day 2, cells were treated with compounds at 0.25% DMSO. The source plate was created with compounds diluted in media at 5-fold the final assay concentration. The compounds were run in a 9-point concentration curve starting at 1 M, with a half-log dilution between concentrations. 20 μL was transferred onto the cell plates (final volume in wells was 100 μL). Plates were harvested after 60 min incubation by aspirating media and adding kit-supplied 1× supplemented lysis buffer to all wells (50 μL per well). Plates were then placed on a plate shaker and incubated at 850 rpm for an additional 30 min.
Antibody mixture solution was prepared by diluting aliquoted d2 and Eu Cryptate antibodies 1:20 in kit supplied detection buffer, and mixing the diluted antibodies solutions (1:1 v:v). 4 μL of this solution was then added to a 384-well detection plate (Perkin Elmer; 6008230).
(§8) Samples were homogenized by pipetting up and down and then transferred (16 μL of cell lysates) from the 96-well cell culture plate to two wells of the HTRF 384-well detection plate containing the antibody solution. Plates were centrifuged (524 g for 1 min) and allowed to incubate between 4 and 24 h at room temperature. Maximum signal was reached after 4 h incubation time and remained stable over a period of 24 hours. Therefore, readings could be made between 4 and 24 h of incubation. Plates were centrifuged again (524 g for 1 min), then analyzed on the EnVision plate reader using the following settings: Excitation 320 nm, Bandwidth 75 nm; Emission 615 nm, Bandwidth 85 nm; Gain 100%; Flashes 100; Lag 60 μs.

[6] = test system: KRAS G12V protein/effector signaling in SW620 cells; experiment: Cell-based pERK HTRF assay in SW620 cell; settings: Homo sapiens, SW-620, 1 h incubation
Procedure: pERK assay (Perkin Elmer) was used to determine the effectiveness of compounds in disrupting KRAS G12V protein/effector signaling in cells.
On Day 1, cells (SW620) were seeded into 96-well plates at 3×10^4 cells/well in 80 μL complete growth media (DMEM, 10% FBS).
as §7, with “10 μM,” for “1 M,”, “1 h” for “60 min”
Antibody mixture solution was prepared by diluting aliquoted d2 and Eu Cryptate antibodies 1:20 in kit supplied detection buffer, and mixing the diluted antibodies solutions (1:1 v:v). Four μL of this solution was then added to a 384-well detection plate (Perkin Elmer; 6008230).
as §8

T4 sequence (P01116 1-169 isoform P01116-2 limits assumed): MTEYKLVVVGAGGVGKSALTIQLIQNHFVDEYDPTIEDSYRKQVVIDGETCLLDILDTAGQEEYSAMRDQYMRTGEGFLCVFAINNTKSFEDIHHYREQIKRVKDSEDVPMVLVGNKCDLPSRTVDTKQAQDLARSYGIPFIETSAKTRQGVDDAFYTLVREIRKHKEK
T1 sequence (P01116 1-169 isoform P01116-2 G12D limits assumed): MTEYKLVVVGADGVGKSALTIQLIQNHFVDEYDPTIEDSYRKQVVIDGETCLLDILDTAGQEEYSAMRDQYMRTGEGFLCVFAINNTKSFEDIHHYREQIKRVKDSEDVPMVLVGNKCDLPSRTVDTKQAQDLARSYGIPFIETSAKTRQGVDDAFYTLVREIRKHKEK
T3 sequence (P01116 1-169 isoform P01116-2 G12R limits assumed): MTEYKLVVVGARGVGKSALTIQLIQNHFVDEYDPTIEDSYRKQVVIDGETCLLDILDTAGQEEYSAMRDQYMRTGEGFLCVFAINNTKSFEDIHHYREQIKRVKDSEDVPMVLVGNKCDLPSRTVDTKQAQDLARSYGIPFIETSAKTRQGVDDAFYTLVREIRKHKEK
T2 sequence (P01116 1-169 isoform P01116-2 G12V limits assumed): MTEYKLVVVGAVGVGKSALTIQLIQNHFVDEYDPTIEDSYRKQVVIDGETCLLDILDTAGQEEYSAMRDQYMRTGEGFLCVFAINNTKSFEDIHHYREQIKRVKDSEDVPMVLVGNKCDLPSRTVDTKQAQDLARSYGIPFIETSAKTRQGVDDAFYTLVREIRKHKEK

Structure (SMILES) | IC50 [1] | IC50 [2] | IC50 [3] | IC50 [4] | IC50 [5] | IC50 [6]
CC(=O)Nc1nc(N2CC3CCC(C2)N3)c2cc(C(F)(F)F)c(-c3ccc(F)c4sc(N)c(C#N)c34)c(F)c2n1 [Compound 28] | 1000 to 10000 nM | > 10000 nM | > 10000 nM | > 10000 nM | ≤ 100 nM | > 10000 nM
N#Cc1c(N)sc2c(F)ccc(-c3c(C(F)(F)F)cc4c(N5CC6CCC(C5)N6)nc(OC[C@H](O)CO)nc4c3F)c12 [Compound 29] | 100 to 1000 nM | 1000 to 10000 nM | 1000 to 10000 nM | 1000 to 10000 nM | ≤ 100 nM | 1000 to 10000 nM
N#Cc1c(N)sc2c(F)ccc(-c3c(C(F)(F)F)cc4c(N5CC6CCC(C5)N6)nc(OCC(CO)CO)nc4c3F)c12 [Compound 30] | 100 to 1000 nM | 1000 to 10000 nM | 1000 to 10000 nM | 100 to 1000 nM | ≤ 100 nM | > 10000 nM
N#Cc1c(N)sc2c(F)ccc(-c3c(C(F)(F)F)cc4c(N5CC6CCC(C5)N6)nc(OCCCO)nc4c3F)c12 [Compound 31] | 100 to 1000 nM | > 10000 nM | > 10000 nM | 1000 to 10000 nM | ≤ 100 nM | > 10000 nM
N#Cc1c(N)sc2c(F)ccc(-c3c(C(F)(F)F)cc4c(N5CC6CCC(C5)N6)nc(OCCO)nc4c3F)c12 [Compound 32] | 100 to 1000 nM | > 10000 nM | > 10000 nM | 1000 to 10000 nM | ≤ 100 nM | > 10000 nM
CN1C[C@H](COc2nc(N3CC4CCC(C3)N4)c3cc(C(F)(F)F)c(-c4ccc(F)c5sc(N)c(C#N)c45)c(F)c3n2)CC1=O [Compound 33] | 100 to 1000 nM | > 10000 nM | > 10000 nM | 1000 to 10000 nM | ≤ 100 nM | > 10000 nM
N#Cc1c(N)sc2c(F)ccc(-c3c(C(F)(F)F)cc4c(N5CC6CCC(C5)N6)nc(OC[C@@H](O)CO)nc4c3F)c12 [Compound 34] | 100 to 1000 nM | 1000 to 10000 nM | > 10000 nM | 1000 to 10000 nM | 100 to 1000 nM | > 10000 nM
COc1c(Cl)c(-c2ccc(F)c3sc(N)c(C#N)c23)c(F)c2ncnc(N3CC4CCC(C3)N4)c12 [Compound 35] | > 10000 nM | > 10000 nM | > 10000 nM | > 10000 nM | 100 to 1000 nM | > 10000 nM
COCCCOc1nc(N2CC3CCC(C2)N3)c2cc(C(F)(F)F)c(-c3ccc(F)c4sc(N)c(C#N)c34)c(F)c2n1 [Compound 36] | 100 to 1000 nM | > 10000 nM | > 10000 nM | 1000 to 10000 nM | ≤ 100 nM | > 10000 nM
N#Cc1c(N)sc2c(F)ccc(-c3c(C(F)(F)F)cc4c(N5C[C@H]6CC[C@@H](C5)N6)nc(OCC5CCOCC5)nc4c3F)c12 [Compound 37, 4-(4-((1R,5S)-3,8-diazabicyclo[3.2.1]octan-3-yl)-8-fluoro-2-((tetrahydro-2H-pyran-4-yl)methoxy)-6-(trifluoromethyl)quinazolin-7-yl)-2-amino-7-fluorobenzo[b]thiophene-3-carbonitrile] | 100 to 1000 nM | > 10000 nM | > 10000 nM | 1000 to 10000 nM | ≤ 100 nM | > 10000 nM
N#Cc1c(N)sc2c(F)ccc(-c3c(C(F)(F)F)cc4c(N5CC6CCC(C5)N6)nc(OC[C@@H]5COCCO5)nc4c3F)c12 [Compound 38] | 1000 to 10000 nM | > 10000 nM | > 10000 nM | 1000 to 10000 nM | ≤ 100 nM | > 10000 nM
N#Cc1c(N)sc2c(F)ccc(-c3c(C(F)(F)F)cc4c(N5CC6CCC(C5)N6)nc(OC[C@H]5COCCO5)nc4c3F)c12 [Compound 40] | 100 to 1000 nM | 1000 to 10000 nM | 1000 to 10000 nM | 100 to 1000 nM | ≤ 100 nM | > 10000 nM
N#Cc1c(N)sc2c(F)ccc(-c3c(C(F)(F)F)cc4c(N5CC6CCC(C5)N6)nc(OCCCCO)nc4c3F)c12 [Compound 41] | 100 to 1000 nM | > 10000 nM | > 10000 nM | 1000 to 10000 nM | ≤ 100 nM | > 10000 nM
N#Cc1c(N)sc2c(F)ccc(-c3c(C(F)(F)F)cc4c(N5CC6CCC(C5)N6)nc(OCCc5ccon5)nc4c3F)c12 [Compound 42] | 100 to 1000 nM | > 10000 nM | 1000 to 10000 nM | 1000 to 10000 nM | ≤ 100 nM | > 10000 nM
N#Cc1c(N)sc2c(F)ccc(-c3c(C(F)(F)F)cc4c(N5CC6CCC(C5)N6)nc(O)nc4c3F)c12 [Compound 43] | > 10000 nM | > 10000 nM | > 10000 nM | > 10000 nM | > 1000 nM | > 10000 nM
N#CCCOc1nc(N2CC3CCC(C2)N3)c2cc(C(F)(F)F)c(-c3ccc(F)c4sc(N)c(C#N)c34)c(F)c2n1 [Compound 44] | 1000 to 10000 nM | > 10000 nM | > 10000 nM | 1000 to 10000 nM | ≤ 100 nM | > 10000 nM
N#Cc1c(N)sc2c(F)ccc(-c3c(C(F)(F)F)cc4c(N5CC6CCC(C5)N6)nc(OCC5CCCO5)nc4c3F)c12 (stereo not drawn) [Compound 45] | 100 to 1000 nM | 1000 to 10000 nM | 1000 to 10000 nM | 1000 to 10000 nM | ≤ 100 nM | > 10000 nM
